{
  "source": "patent US20250281449A1",
  "about": "“NITROGEN-CONTAINING ANALOGS OF SALINOMYCIN FOR USE IN MULTIPLE MYELOMA (MM)” (Centre National de la Recherche Scientifique, priority 2021, published 2025)",
  "format_in_all_cases": "cell-based, human",
  "key": {"[1]": {"test_system": "Phospho-H2A.X (S139)", "assay": "DNA damage response, Phospho-H2A.X (S139) western blot", "settings": "IC50 and 200 nM, 24H", "procedure": "Cells were treated with iron chelators (80 μM Deferasirox), and Ironomycin (IC50 and 200 nM) during 24H. Protein levels of Phospho-H2A.X (S139) were analyzed by western blot and normalized by the histone 3 protein level.\n(§1) The total cell lysates were obtained with RIPA 1× lysis buffer (#9806, Cell Signaling®) according with the supplier recommendations.\n(§2) Protein lysates migrate on 10% polyacrylamide gel (NP-0301, Novex, Life Technologies®), in MOPS 1× running buffer (NP0001, Novex, Life Technologies®) or MES 1× running buffer NP-0002, Novex, Life Technologies®) and proteins are transferred to nitrocellulose membrane (1B301001, I-Blot Transfert Starck, NuPAGE, Life Technologies®). The primary antibodies mouse-anti-phospho-Histone H2A.X (Ser139) clone JBW301 ( 1/1000, Merck Millipore), anti-H3K36me3 (#ab9050, abcam®), anti-H3K27me3 (#9733, Cell Signaling®), anti-MMSET (#65127, Cell Signaling® et ab75359, abcam), anti-MYC (#5605, Cell Signaling®) were incubated in TBS-Tween 20 0.1% (Tris-Buffered Saline, pH 7.4) with 5% non-fat milk or Bovine serum albumin (Sigma-Aldrich, A7906). Protein levels are objectified by labeling with an anti-α-tubulin mouse monoclonal antibody (Sigma, T9026, St Louis, MO, USA 1/1000) or anti-Histone 3 (ab18521, abcam). […] Quantification of protein levels was performed with Image J® software (National Institutes of Health, Bethesda, MD, USA)."}, "[2]": {"test_system": "pan-caspase, caspase3/7 and caspase 9 activity in OPM-2 cells", "assay": "Caspase activity by luminometry", "settings": "OPM-2, 48H", "procedure": "OPM-2 cells were treated as indicated during 48H and pan-caspase, caspase3/7 and caspase 9 activity were measured by luminometry. 4-OH-cyclophosphamide (80 μM) was used as a positive control (C)."}, "[3]": {"test_system": "MMSET (isoforms I and II)", "assay": "Western blot of MMSET protein level", "settings": "MM cell lines with t(4; 14) translocation, 24H", "procedure": "Cells were treated with iron chelators (80 μM Deferasirox), and Ironomycin (IC50 and 200 nM) during 24H. Protein levels of MMSET (isoforms I and II), MYC, H3K36me3 and H3K27me3 were analyzed by western blot. MMSET (isoforms I and II) and MYC signal were normalized by α-tubulin protein level, H3K36me3 and H3K27me3 signal were normalized by total histone 3 protein level.\nas §1\nas §2, with “A7906).” for “A7906). Protein levels are objectified by labeling with an anti-α-tubulin mouse monoclonal antibody (Sigma, T9026, St Louis, MO, USA 1/1000) or anti-Histone 3 (ab18521, abcam).”"}, "[4]": {"test_system": "primary MM cells", "assay": "Assay on primary MM cells of patients (flow cytometry)", "settings": "n=5, with IL-6", "procedure": "(§3) Primary MM cells were treated with Ironomycin (A) or AM-23 (B) and incubated during 96H with IL-6. The toxicity on MM cells and non-MM cells was analyzed by flow cytometry and expressed in % of control.\n(§4) Bone marrow samples were collected after patients' written informed consent in accordance with the Declaration of Helsinki and institutional research board approval from Montpellier University hospital. Cells are obtained from […] of 5 patients with MM. Cells are obtained by density gradient separation and qualified by Flow cytometry.\n(§5) Cells are cultured in Gibco® RPMI-1640 (Glutamax) medium (#6187-010) with 10% FBS at a density of 0.5×10^6 Cell/mL with 2 ng/mL of interleukin-6. Cells are seeded 24H after thawing and treated with various compounds during 72H.\n(§6) Total cells were counted with trypan blue and stained with the panel CD38-APC, CD138-PE (Beckman coulter) and analyzed by flow cytometry (Fortessa cytometer, BD Pharmigen). Tumorous MM cells were gated on CD38+ and CD138+."}, "[5]": {"test_system": "non-MM cells", "assay": "Assay on primary samples of patients, non-MM cells (flow cytometry)", "procedure": "as §3, §4, §5, §6"}, "[6]": {"test_system": "XG-7 cells", "assay": "Drug combination concentration matrix, viability by ATP quantification, Bliss synergy", "procedure": "XG-7 or XG2 WT (XG2 neg) or XG2 melphalan resistant (XG2 Melph R) cell lines were respectively treated with increasing concentrations of ironomycin combined with melphalan during 96 h and cell viability was tested by ATP quantification to obtain the viability matrix. The synergy matrix was calculated as described in Material and Methods.\nXG-7cells were treated with increasing concentrations of ironomycin combined with lenalidomide during 96 h and cell viability was tested by ATP quantification to obtain the viability matrix. The synergy matrix was calculated as described in Material and Methods.\nXG-7cells were treated with increasing concentrations of ironomycin combined with pomalidomide during 96 h and cell viability was tested by ATP quantification to obtain the viability matrix. The synergy matrix was calculated as described in Material and Methods.\nXG-7cells were treated with increasing concentrations of ironomycin combined with carfilzomib during 96 h and cell viability was tested by ATP quantification to obtain the viability matrix. The synergy matrix was calculated as described in Material and Methods.\nXG-7cells were treated with increasing concentrations of ironomycin combined with AZD-5991 during 96 h and cell viability was tested by ATP quantification to obtain the viability matrix. The synergy matrix was calculated as described in Material and Methods\nHMCL cell lines were cultured for 4 days in 96-well flat-bottom microtiter plates in RPMI 1640 medium or DMEM medium, 10% or 20% FCS (control medium) in the presence of various compounds. The number of viable cells in culture was determined using the Cell Titer-Glo Luminescent Cell Viability Assay from Promega, Madison, WI, USA using a Centro LB 960 luminometer (Berthold Technologies, Bad Wildbad, Germany).\nThe interaction between the drugs tested in vitro was investigated with a concentration matrix test, in which increasing concentration of each single drug were assessed with all possible combinations of the other drugs. For each combination, the percentage of expected growing cells in the case of effect independence was calculated according to the Bliss equation (Combes et al., 2019): […]\nwhere fuC is the expected fraction of cells unaffected by the drug combination in the case of effect independence, and fuA and fuB are the fractions of cells unaffected by treatment A and B, respectively. The difference between the fraction of living cells in the cytotoxicity test and the fuC value was considered as an estimation of the interaction effect, with […]. Synergy matrix was built with the R package “SynergyFinder”."}},
  "data": [
    {"smiles": "C#CCN[C@@H]1C=C[C@]2(O[C@H]([C@@H](CC)C(=O)[C@@H](C)[C@@H](O)[C@H](C)[C@@H]3O[C@@H]([C@@H](CC)C(=O)O)CC[C@@H]3C)[C@@H](C)C[C@H]2C)O[C@@]12CC[C@@](C)([C@H]1CC[C@](O)(CC)[C@H](C)O1)O2", "note": "[Ironomycin]", "values": [
      {"measurement": "DNA double strand breaks", "setting": "[1]", "value": "DNA double strand breaks"},
      {"measurement": "caspase activation", "setting": "[2]", "value": "activation of caspases 3/7 and 9"},
      {"measurement": "expression of MMSET", "setting": "[3]", "value": "downregulates the expression of MMSET"},
      {"measurement": "toxicity on primary MM cells of patients", "setting": "[4]", "value": "validated the therapeutic interest"},
      {"measurement": "toxicity for non-tumoral cells", "setting": "[5]", "value": "without significant toxicity"},
      {"measurement": "interaction effect, combined with AZD5991", "setting": "[6]; XG-7, 96 h", "value": "additive effect"},
      {"measurement": "interaction effect, combined with Lenalidomide", "setting": "[6]; XG-7, 96 h", "value": "synergy"},
      {"measurement": "interaction effect, combined with Pomalidomide", "setting": "[6]; XG-7, 96 h", "value": "synergy"},
      {"measurement": "interaction effect, combined with carfilzomib", "setting": "[6]; XG-7, 96 h", "value": "additive effect"},
      {"measurement": "interaction effect, combined with melphalan", "setting": "[6]; XG-7 or XG2 WT, 96 h", "value": "synergistic effect"}
    ]}
  ]
}
